Experiments:
[1] = wn = mass fraction of the nth substance listed; conditions: 100 kPa, Liquid, Vibrating tube method
[2] = refractive index (Na D-line) (dimensionless); wn = mass fraction of the nth substance listed; conditions: 100 kPa, Liquid, Standard Abbe refractometry
[3] = 100 kPa, Liquid, Vibrating tube method
[4] = refractive index (Na D-line) (dimensionless); conditions: 100 kPa, Liquid, Standard Abbe refractometry

C=CC[P+](c1ccccc1)(c1ccccc1)c1ccccc1.[Br-] [allyltriphenylphosphonium bromide] + OCCOCCO
Conditions | mass density, w1 = 0.1842 [kg/m3] | mass density, w1 = 0.2653 [kg/m3] | mass density, w1 = 0.4745 [kg/m3] | refractive index, w1 = 0.1842 | refractive index, w1 = 0.2653 | refractive index, w1 = 0.4745
[1], 293.15 K | 1146.3 | 1159.9 | 1201.1 | – | – | –
[1], 298.15 K | 1142.7 | 1156.3 | 1197.5 | – | – | –
[1], 303.15 K | 1139.1 | 1152.6 | 1193.8 | – | – | –
[1], 308.15 K | 1135.5 | 1149 | 1190.1 | – | – | –
[1], 313.15 K | 1131.9 | 1145.3 | 1186.4 | – | – | –
[1], 318.15 K | 1128.2 | 1141.7 | 1182.7 | – | – | –
[1], 323.15 K | 1124.6 | 1138 | 1179 | – | – | –
[1], 328.15 K | 1121 | 1134.4 | 1175.4 | – | – | –
[1], 333.15 K | 1117.3 | 1130.7 | 1171.7 | – | – | –
[1], 338.15 K | 1113.6 | 1127 | 1167.9 | – | – | –
[1], 343.15 K | 1109.9 | 1123.3 | 1164.2 | – | – | –
[2], 293.15 K | – | – | – | 1.4817 | 1.4955 | 1.5446
[2], 298.15 K | – | – | – | 1.4801 | 1.4938 | 1.543
[2], 303.15 K | – | – | – | 1.4784 | 1.4921 | 1.5413
[2], 308.15 K | – | – | – | 1.4768 | 1.4904 | 1.5396
[2], 313.15 K | – | – | – | 1.4752 | 1.4887 | 1.538
[2], 318.15 K | – | – | – | 1.4735 | 1.487 | 1.5363
[2], 323.15 K | – | – | – | 1.4718 | 1.4853 | 1.5346
[2], 328.15 K | – | – | – | 1.4701 | 1.4836 | 1.5329
[2], 333.15 K | – | – | – | 1.4684 | 1.4819 | 1.5313
[2], 338.15 K | – | – | – | 1.4668 | 1.4802 | 1.5296
[2], 343.15 K | – | – | – | 1.4651 | 1.4785 | 1.5279

C=CC[P+](c1ccccc1)(c1ccccc1)c1ccccc1.[Br-] [allyltriphenylphosphonium bromide] + OCCOCCOCCO
Conditions | mass density, w1 = 0.1375 [kg/m3] | mass density, w1 = 0.2033 [kg/m3] | mass density, w1 = 0.3895 [kg/m3] | refractive index, w1 = 0.1375 | refractive index, w1 = 0.2033 | refractive index, w1 = 0.3895
[1], 293.15 K | 1146.2 | 1159.2 | 1190.8 | – | – | –
[1], 298.15 K | 1142.5 | 1155.5 | 1187.1 | – | – | –
[1], 303.15 K | 1138.8 | 1151.7 | 1183.4 | – | – | –
[1], 308.15 K | 1135 | 1148 | 1179.7 | – | – | –
[1], 313.15 K | 1131.3 | 1144.2 | 1176.1 | – | – | –
[1], 318.15 K | 1127.5 | 1140.5 | 1172.4 | – | – | –
[1], 323.15 K | 1123.7 | 1136.7 | 1168.7 | – | – | –
[1], 328.15 K | 1119.9 | 1133 | 1165 | – | – | –
[1], 333.15 K | 1116.1 | 1129.2 | 1161.3 | – | – | –
[1], 338.15 K | 1112.2 | 1125.5 | 1157.6 | – | – | –
[1], 343.15 K | 1108.4 | 1121.7 | 1153.9 | – | – | –
[2], 293.15 K | – | – | – | 1.4803 | 1.4945 | 1.5314
[2], 298.15 K | – | – | – | 1.4786 | 1.4927 | 1.5297
[2], 303.15 K | – | – | – | 1.4769 | 1.4909 | 1.528
[2], 308.15 K | – | – | – | 1.4752 | 1.4892 | 1.5263
[2], 313.15 K | – | – | – | 1.4735 | 1.4874 | 1.5245
[2], 318.15 K | – | – | – | 1.4717 | 1.4857 | 1.5228
[2], 323.15 K | – | – | – | 1.47 | 1.4839 | 1.5211
[2], 328.15 K | – | – | – | 1.4683 | 1.4822 | 1.5193
[2], 333.15 K | – | – | – | 1.4666 | 1.4804 | 1.5176
[2], 338.15 K | – | – | – | 1.4649 | 1.4787 | 1.5158
[2], 343.15 K | – | – | – | 1.4632 | 1.4769 | 1.5141

OCCOCCO [diethylene glycol]
Conditions | mass density, [3] [kg/m3] | refractive index, [4]
293.15 K | 1116.5 | 1.4477
298.15 K | 1113 | 1.4461
303.15 K | 1109.4 | 1.4446
308.15 K | 1105.8 | 1.443
313.15 K | 1102.2 | 1.4415
318.15 K | 1098.6 | 1.44
323.15 K | 1095 | 1.4384
328.15 K | 1091.4 | 1.4368
333.15 K | 1087.7 | 1.4351
338.15 K | 1084 | 1.4334
343.15 K | 1080.3 | 1.4317

OCCOCCO [diethylene glycol] + C=CC[P+](c1ccccc1)(c1ccccc1)c1ccccc1.[Br-]
w2 = 0
Conditions | mass density, [1] [kg/m3] | refractive index, [2]
293.15 K | 1116.5 | 1.4477
298.15 K | 1113 | 1.4461
303.15 K | 1109.4 | 1.4446
308.15 K | 1105.8 | 1.443
313.15 K | 1102.2 | 1.4415
318.15 K | 1098.6 | 1.44
323.15 K | 1095 | 1.4384
328.15 K | 1091.4 | 1.4368
333.15 K | 1087.7 | 1.4351
338.15 K | 1084 | 1.4334
343.15 K | 1080.3 | 1.4317

OCCOCCOCCO [triethylene glycol]
Conditions | mass density, [3] [kg/m3] | refractive index, [4]
293.15 K | 1124.6 | 1.4576
298.15 K | 1120.8 | 1.4558
303.15 K | 1116.9 | 1.4541
308.15 K | 1113 | 1.4523
313.15 K | 1109.1 | 1.4505
318.15 K | 1105.2 | 1.4488
323.15 K | 1101.3 | 1.4469
328.15 K | 1097.4 | 1.445
333.15 K | 1093.5 | 1.4434
338.15 K | 1089.6 | 1.4417
343.15 K | 1085.6 | 1.4399

OCCOCCOCCO [triethylene glycol] + C=CC[P+](c1ccccc1)(c1ccccc1)c1ccccc1.[Br-]
w2 = 0
Conditions | mass density, [1] [kg/m3] | refractive index, [2]
293.15 K | 1124.6 | 1.4576
298.15 K | 1120.8 | 1.4558
303.15 K | 1116.9 | 1.4541
308.15 K | 1113 | 1.4523
313.15 K | 1109.1 | 1.4505
318.15 K | 1105.2 | 1.4488
323.15 K | 1101.3 | 1.4469
328.15 K | 1097.4 | 1.445
333.15 K | 1093.5 | 1.4434
338.15 K | 1089.6 | 1.4417
343.15 K | 1085.6 | 1.4399
